Like-named read-outs stand apart in the source and are kept apart here.
Experiments:
MDA-MB-231 cells [1] = assay: HCA of cell motility and cytotoxicity (Oris Pro 384 cell migration plate); format: cell-based, human; conditions: 48 hours, at antimigratory concentrations
Procedure: HCA of cell motility and cytotoxicity was performed essentially as described (51). MDA-MB-231 cells (15,000/well) were plated in collagen-coated Oris™ Pro 384-well microplates (Platypus Technologies cat # PRO384CMACCS) containing a chemical exclusion zone that dissolves upon cell seeding. Two hours after plating, medium was removed, and cells treated with ten-point, two-fold concentration gradients of test agents. Forty-eight hours after treatment, cells were stained with 10 μg/ml Hoechst 33342 and 1 μg/ml PI in HBSS for 15 min at 37° C. Plates were washed once with PBS and scanned live on the ArrayScan II using a 5× objective. To capture cells that had entered into the exclusion zone, a single field was acquired in the center of the well and nuclei therein enumerated. To assess changes in cell loss, nuclear size, and necrotic cell death, a second scan was performed that captured one field at the edge of the well (51). Parameters exported and plotted were SelectedObjectCountPerValidField (cell density), MEAN ObjectAreaCh1 (nucleus size), and % RESPONDER MeanAvgIntenCh2 (percent PI positive cells based on based on a threshold set with vehicle treated cells).

rat hepatocytes [2] = assay: Hepatocyte mitochondrial function (TMRE staining); format: cell-based
Procedure: (§1) Rat hepatocytes were isolated using standard two step collagenase digestion (15) and sub-cultivated at 14,000 hepatocytes/well in collagen-1 coated 384 well plates in Williams E Medium supplemented with 10% FBS, 2 mM L-glutamine and 50 U/ml Penicillin and streptomycin. After 4 hours, medium was decanted and replaced with Hepatocyte Maintenance Media (Williams E supplemented with 1.25 mg/ml bovine serum albumin, 6.25 μg/ml human insulin, 100 nM dexamethasone, 6.25 μg/ml human transferrin, 6.25 ng/ml selenous acid, 2 mM L-glutamine, 15 mM HEPES, 100 U/mL penicillin, and 100 U/mL streptomycin). After overnight culture, cells were treated with concentration gradients of test agents. One hour after compound addition, cells were labeled with 200 nM TMRE and 4 μg/ml Hoechst 33342 for 45 min, imaged live on an ArrayScan VTI using a 10× objective, and images were analyzed with the Compartmental Bioapplication. Mitochondria were identified as cytosolic spots by size and brightness. The final parameter was % HIGH RingSpotAvgIntenCh2 (i.e., percentage of cells with TMRE puncta in the cytoplasm based on a threshold set with vehicle treated cells).

MDA-MB-231 cells [3] = assay: HCA of apoptosis and ERK phosphorylation (multiparametric: nuclear condensation, caspase-3 cleavage, ERK phosphorylation); format: cell-based, human; conditions: for IC50: Homo sapiens, 24 hours
Procedure: MDA-MB-231 cells (10,000/well) were treated with identical concentration gradients of test agents on the right and left half of a 384 well microplate for later assessment of potential compound autofluorescence. After 24 hours, cells were fixed, permeabilized with 0.2% Triton X-100, blocked with 1% BSA/PBS, and immunostained with anti-phospho-ERK (E10, CST cat#9106L)/AlexaFluor488 and anti-cleaved caspase-3 (CST cat#9664L)/AlexaFluor594 primary/secondary antibody pairs. Plates were imaged on the ArrayScan II using a 10×0.5NA objective. Each well was background corrected by subtracting mean phospho-ERK and cleaved caspase-3 intensities from wells that had received secondary antibody only. Data in Table 1 are the averages of the indicated numbers of independent experiments, each performed in quadruplicate. IC50, standard error, and 95% confidence intervals were calculated by […] in GraphPad Prism.
Multiple data points were analyzed in GraphPad Prism by one-way ANOVA using Dunnett's multiple comparison test. EC50/IC50 values were obtained from at least three independent experiments by non-linear regression using a four parameter logistic equation. IC50, standard error, and 95% confidence intervals were calculated in GraphPad.

rat hepatocytes [4] = assay: Five-day hepatocyte toxicity (PI positive cells); format: cell-based
Procedure: as §1
A gelling solution of 1.25 mg/ml rat tail collagen type I in pH 7.2 90:10 (v/v) Williams E media/10×HBSS was overlaid onto the rat hepatocytes. The collagen gel was incubated for 1 hour at 37° C., 5% CO2. The collagen sandwich cultures were then challenged for 5 days to test compounds in Hepatocyte Maintenance Media, without refeeding. A 10× solution of 40 μg/ml Hoechst 33342 was added during the final 2 hours of incubation followed by a 10× solution of 20 μg/ml PI for 1 hour. Cells were imaged and the percentage of PI positive cells calculated as above.

MDA-MB-231 cells [5] = assay: Detection and quantitation of ROS in cancer cells (CM-H2-DCFDA); format: cell-based, human; conditions: for EC50: read-out: EC50 of ROS generation
Procedure: Detection and quantitation of ROS in cancer cells was performed as described before (14). Briefly, MDA-MB-231 cells were labeled with Hoechst 33342, loaded with CM-H2-DCFDA (5 μM, 15 min), and treated with test agents for 10 min. After two washes, cells were analyzed for Hoechst and ROS/FITC fluorescence on the ArrayScan II. Cells were classified as positive for ROS if their average FITC intensity exceeded a threshold defined as the average FITC intensity plus one SD from DMSO-treated wells.

[6] = test system: ERK, JNK/SAPK, p38, MEK1 and MKK4/SEK1 phosphorylation; assay: Western blot of MAPK cascade phosphorylation; format: cell-based, human; conditions: MDA-MB-231 cells, 20 μM
[7] = test system: DUSP6/MKP-3 and DUSP1/MKP-1; conditions: HeLa cells, prior study (12); cited from earlier work
[8] = test system: patient-derived pre-B acute lymphoblastic leukemia (pre-B-ALL) cells; conditions: literature (46); cited from earlier work
NCI 60 cell line panel = conditions: NSC150117, last tested June 2016; cited from earlier work
cellular MAPK activity = conditions: literature value; cited from earlier work
MDA-MB-231 cells [9] = assay: Toxicity reversal (rescue from BCI-215 toxicity by MAPK inhibitors); format: cell-based, human; conditions: MAPK inhibitor pre-incubation, then BCI-215 25 μM, 24 hours
Procedure: Cells were pre-treated (30 min for SCH772984, SP600125, SB203580, and 3 hours for JNK-IN-8) with identical concentration gradients of MAPK inhibitors on the right and left halves of a 384 well microplate. After preincubation, half of the microplate was treated with vehicle (DMSO), the other with a pro-apoptotic concentration of BCI-215 (25 μM). To eliminate potential bias through plate/edge effects, an independent plate was prepared in parallel where vehicle and BCI-215 treatments were reversed. Twenty-four hours thereafter, plates were stained with Hoechst 33342, washed once, and imaged on the ArrayScan II using a 10× objective for analysis for cell numbers and nuclear morphology. Plates were subsequently immunostained with a cleaved caspase-3/Cy5-conjugated secondary antibody pair and analyzed for apoptosis on an ArrayScan VTI using a 20×0.75 NA objective. Four independent readouts were extracted and correlated: cell density (SelectedObjectCountPerValidField), nuclear condensation (MEAN_ObjectAvgIntenCh1), nucleus rounding (MEAN_ObjectShapeLWRCh1), and average cellular cleaved caspase-3 intensity (MEAN_AvgIntenCh2). For each parameter, data were normalized to vehicle (maximum rescue) and BCI-215 (no rescue) as % rescue=1−((data point−DMSO)/(DMSO-BCI-215))*100.

MDA-MB-231 cells [10] = assay: Immune cell killing (sensitization to PBMC-derived LAK); format: cell-based, human; conditions: pre-treated 24 hours: BCI-215 3 μM, cisplatin 2 μM, doxorubicin 400 nM
Procedure: Peripheral blood mononuclear cells were obtained from healthy volunteers with an established IRB approved protocol, separated from heparinized blood on Ficoll-hypaque (GE Healthcare, Chicago) gradients as previously reported (16). Cells were cultured in RPMI 1640 supplemented with 10% FCS, 1% glutamine, 1% penicillin/streptomycin, and stimulated with 6,000 IU of Interleukin 2 for 24 hours. After incubation, cells were washed with PBS and counted. In parallel, MBA-MB-231 cells were pre-treated in a 384 well plate with vehicle or BCI-215 (3 μM). After 24 hours in culture, medium was replaced and PBMC added in two-fold serial dilutions starting with a 50-fold excess of PBMCs in triplicate. After 24 hours of co-culture, cells were fixed with formaldehyde/Hoechst 33342, washed twice with PBS, and imaged on the ArrayScan II. Cancer cells were identified by their larger nuclei compared with PBMC, setting a size gate in the DAPI channel. In experiments with chemotherapeutics, cells carrying a biosensor consisting of a mitochondrial targeting sequence derived from cytochrome c oxidase VIII linked to GFP that is a surrogate for cytochrome c release from mitochondria (17) were pre-treated for 24 hours with cisplatin (2 μM) or doxorubicin (400 nM), exposed to LAK as above, and cancer cells identified and quantified by green fluorescence. Cell densities were normalized to those in the absence of PBMCs. Mean cell densities from multiple independent experiments were averaged and plotted in GraphPad Prism.

[11] = rat hepatocytes, 5-day exposure

SMILES: O=C1/C(=C/c2ccccc2)C(NC2CCCCC2)c2ccccc21 (centres unmarked) [BCI, (E)-2-benzylidene-3-(cyclohexylamino)-2,3-dihydro-1H-inden-1-one]
- necrosis (% PI positive cells) (MDA-MB-231 cells [1]): Necrosis was reduced
- mitochondrial membrane integrity / potential (TMRE) (rat hepatocytes [2]): did not affect mitochondrial potential
- nuclear morphology (MDA-MB-231 cells [3]; BCI and BCI-215 at 22 μM): shrunken, condensed nuclei that resembled pyknosis
- IC50 (MDA-MB-231 cells [3]; induction of phospho-ERK, read-out: IC50 ERK phosphorylation): 8.59 µM
- IC50 (MDA-MB-231 cells [3]; read-out: IC50 Caspase-3 cleavage): 9.17 µM
- IC50 (MDA-MB-231 cells [3]; read-out: IC50 Nuclear condensation): 12.8 µM
- hepatocyte toxicity, cell death (PI positive cells) (rat hepatocytes [4]; [11]): caused cell death
- EC50 (MDA-MB-231 cells [5]; Homo sapiens): 20 µM
- activation (phosphorylation) of ERK, JNK/SAPK and p38 [6]: activated all three kinases
- effect on ectopic DUSP6/MKP-3 and DUSP1/MKP-1 expression [7]: override the effects
- cell death in pre-B-ALL cells [8]: selectively induced cell death
- GI50 (NCI 60 cell line panel): 1.84 µM

SMILES: Cc1cc(NC(=O)c2cccc(NC(=O)/C=C/CN(C)C)c2)ccc1Nc1nccc(-c2cccnc2)n1 [JNK-IN-8]
- published concentration reported to inhibit cellular MAPK activity (cellular MAPK activity): 0.5 µM
- reversal of BCI-215-induced cell loss, nuclear morphology changes and apoptosis (MDA-MB-231 cells [9]): no effect

SMILES: O=C1C(SCCO)=C(SCCO)C(=O)c2ccccc21 [NSC95397]
- necrosis (% PI positive cells) (MDA-MB-231 cells [1]): caused necrosis at antimigratory concentrations
- mitochondrial membrane integrity / potential (TMRE) (rat hepatocytes [2]): loss of mitochondrial membrane integrity
- hepatocyte toxicity, cell death (PI positive cells) (rat hepatocytes [4]; [11]): caused cell death
- time to ROS generation (MDA-MB-231 cells [5]): ≤ 30 min
- EC50 (MDA-MB-231 cells [5]): 3 to 5 µM

SMILES: C[S+]([O-])c1ccc(-c2nc(-c3ccncc3)c(-c3ccc(F)cc3)[nH]2)cc1 (centres unmarked) [SB203580]
- published concentration reported to inhibit cellular MAPK activity (cellular MAPK activity): 10 µM
- reversal of BCI-215-induced cell loss, nuclear morphology changes and apoptosis (MDA-MB-231 cells [9]): partially reversed

SMILES: O=C(Nc1ccc2[nH]nc(-c3ccncc3)c2c1)[C@@H]1CCN(CC(=O)N2CCN(c3ccc(-c4ncccn4)cc3)CC2)C1 [SCH772984]
- published concentration reported to inhibit cellular MAPK activity (cellular MAPK activity): 0.03 µM
- reversal of BCI-215-induced cell loss, nuclear morphology changes and apoptosis (MDA-MB-231 cells [9]): no effect

SMILES: N.N.[Cl][Pt][Cl] [cisplatin]
- sensitization to LAK activity (MDA-MB-231 cells [10]): sensitized cells to LAK activity

SMILES: COc1cccc2c1C(=O)c1c(O)c3c(c(O)c1C2=O)C[C@@](O)(C(=O)CO)C[C@@H]3O[C@H]1C[C@H](N)[C@H](O)[C@H](C)O1 [doxorubicin]
- sensitization to LAK activity (MDA-MB-231 cells [10]): sensitized cells to LAK activity

SMILES: CC1=CC(=O)c2ccccc2C1=O [menadione]
- mitochondrial membrane integrity / potential (TMRE) (rat hepatocytes [2]): loss of mitochondrial membrane integrity
- hepatocyte toxicity, cell death (PI positive cells) (rat hepatocytes [4]): caused cell death

SMILES: C[n+]1cc2c3c(ccc2c2ccc4cc5c(cc4c21)OCO5)OCO3 [sanguinarine]
- mitochondrial membrane integrity / potential (TMRE) (rat hepatocytes [2]): loss of mitochondrial membrane integrity
- hepatocyte toxicity, cell death (PI positive cells) (rat hepatocytes [4]; [11]): caused cell death
